Assay [1] concerns the target T1, B1R receptor of the rat (rB1R) (Rattus norvegicus, UniProt P97583).
T1 construct: expressed in transfected cells; host or cells: CHO K1 cells
T1 sequence (P97583 1-337): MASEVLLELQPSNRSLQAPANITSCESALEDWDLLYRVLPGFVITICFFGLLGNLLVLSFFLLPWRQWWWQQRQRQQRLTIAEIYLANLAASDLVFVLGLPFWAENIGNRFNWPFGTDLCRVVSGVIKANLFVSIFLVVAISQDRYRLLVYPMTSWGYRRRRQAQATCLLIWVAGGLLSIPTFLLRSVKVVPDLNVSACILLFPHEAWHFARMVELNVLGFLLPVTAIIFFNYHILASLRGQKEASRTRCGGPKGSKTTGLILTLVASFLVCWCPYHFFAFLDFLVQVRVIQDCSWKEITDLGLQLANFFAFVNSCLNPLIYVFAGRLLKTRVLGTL
The experiment in a line: Functional investigation on the bradykinin receptor 1 (B1R), FLIPR Ca2+ assay, rB1R cells. It counts as cell-based. An outline of the steps:
(§1)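 Stably transfected CHO K1 cells expressing human or rat B1R were loaded with Fluo-4, and Ca2+ fluorescence was read on a FLIPR. Compound (10 μM) was added first to measure activation. After 10–20 min, agonist at EC80 was added (Lys-Des-Arg9-bradykinin for hB1R, Des-Arg9-bradykinin for rB1R) to give % inhibition. IC50 values came from concentration series.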

Assay [2] deals with T2, human B1R receptor (hB1R) (Homo sapiens, UniProt P46663).
T2 construct: expressed in transfected cells; host or cells: CHO K1 cells
T2 sequence (P46663 1-353): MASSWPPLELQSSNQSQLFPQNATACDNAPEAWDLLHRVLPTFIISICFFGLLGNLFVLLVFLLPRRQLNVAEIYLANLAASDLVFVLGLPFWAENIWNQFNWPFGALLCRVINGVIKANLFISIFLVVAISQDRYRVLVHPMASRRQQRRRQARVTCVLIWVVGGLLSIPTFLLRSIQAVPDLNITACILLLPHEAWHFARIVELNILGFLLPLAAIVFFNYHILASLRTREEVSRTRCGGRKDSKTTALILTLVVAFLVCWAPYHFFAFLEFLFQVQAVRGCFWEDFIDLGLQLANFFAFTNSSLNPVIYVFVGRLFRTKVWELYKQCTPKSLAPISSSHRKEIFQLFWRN
The experiment in a line: Functional investigation on the bradykinin receptor 1 (B1R), FLIPR Ca2+ assay, hB1R cells. Type of assay: cell-based. An outline of the steps: as §1

Here are results for 16 compounds from patent publication US8232288B2, “Substituted benzimidazoles, benzothiazoles and benzoxazoles” (Gruenenthal GmbH, priority 2009, dated 2012).

On to `COc1cc(C)c(S(=O)(=O)N(C)C(C)c2nc3cccc(C(=O)N4CCC5(CCN(Cc6cccc(C#N)c6)CC5)CC4)c3[nH]2)c(C)c1` (centres unmarked) [I_CC-44, N-[1-[7-[9-[(3-Cyano-phenyl)-methyl]-3,9-diazaspiro[5.5]undecane-3-carbonyl]-1H-benzoimidazol-2-yl]-ethyl]-4-methoxy-N,2,6-trimethyl-benzenesulfonic acid amide], for which the inhibition – broadly, the change of the read-out against control, counted positive when it falls – at 10 µM in assay [1] came out at 101%; in assay [2] it was 84%.
Consider `COc1cc(C)c(S(=O)(=O)N(C)C(C)c2nc3cccc(C(=O)N4CCC5(CCN(Cc6ccccc6C#N)CC5)CC4)c3[nH]2)c(C)c1` (centres unmarked) [I_CC-45, N-[1-[7-[9-[(2-Cyano-phenyl)-methyl]-3,9-diazaspiro[5.5]undecane-3-carbonyl]-1H-benzoimidazol-2-yl]-ethyl]-4-methoxy-N,2,6-trimethyl-benzenesulfonic acid amide], for which the inhibition at 10 µM in assay [1] worked out at 98%; in assay [2], 81%.
Turning to `COc1cc(C)c(S(=O)(=O)N(C)C(C)c2nc3cccc(C(=O)N4CCC5(CCN(C(=O)c6ccc(C(F)(F)F)cn6)CC5)CC4)c3[nH]2)c(C)c1` (centres unmarked) [I_CC-46, 4-Methoxy-N,2,6-trimethyl-N-[1-[7-[9-[5-(trifluoromethyl)-pyridine-2-carbonyl]-3,9-diazaspiro[5.5]undecane-3-carbonyl]-1H-benzoimidazol-2-yl]-ethyl]-benzenesulfonic acid amide], the inhibition at 10 µM in assay [1] came out at 89%; in assay [2] it was 42%.
For the compound `COc1cc(C)c(S(=O)(=O)N(C)C(C)c2nc3cccc(C(=O)N4CCC5(CCN(C(=O)c6cnccn6)CC5)CC4)c3[nH]2)c(C)c1` (centres unmarked) [I_CC-47, 4-Methoxy-N,2,6-trimethyl-N-[1-[7-[9-(pyrazine-2-carbonyl)-3,9-diazaspiro[5.5]undecane-3-carbonyl]-1H-benzoimidazol-2-yl]-ethyl]-benzenesulfonic acid amide], the figures for the inhibition at 10 µM in assay [1] and in assay [2] were 90% and 58%, respectively.
The like results for `COc1cc(C)c(S(=O)(=O)N(C)C(C)c2nc3cccc(C(=O)N4CCC5(CCN(C(=O)c6cccnc6SC)CC5)CC4)c3[nH]2)c(C)c1` (centres unmarked) [I_CC-48, 4-Methoxy-N,2,6-trimethyl-N-[1-[7-[9-(2-methylsulfanyl-pyridine-3-carbonyl)-3,9-diazaspiro[5.5]undecane-3-carbonyl]-1H-benzoimidazol-2-yl]-ethyl]-benzenesulfonic acid amide] were, in that order, 89% and 61%.
With `COc1cc(C)c(S(=O)(=O)N(C)C(C)c2nc3cccc(C(=O)N4CCC5(CCN(C(=O)c6ccc(C#N)cc6)CC5)CC4)c3[nH]2)c(C)c1` (centres unmarked) [I_CC-49, N-[1-[7-[9-(4-Cyano-benzoyl)-3,9-diazaspiro[5.5]undecane-3-carbonyl]-1H-benzoimidazol-2-yl]-ethyl]-4-methoxy-N,2,6-trimethyl-benzenesulfonic acid amide], the inhibition at 10 µM in assay [1] was 87%; in assay [2] it was 72%.
The like results for `COc1cc(C)c(S(=O)(=O)N(C)C(C)c2nc3cccc(C(=O)N4CCC5(CC4)CCN(C(=O)C4CC4)CC5)c3[nH]2)c(C)c1` (centres unmarked) [I_CC-50, N-[1-[7-[9-(Cyclopropanecarbonyl)-3,9-diazaspiro[5.5]undecane-3-carbonyl]-1H-benzoimidazol-2-yl]-ethyl]-4-methoxy-N,2,6-trimethyl-benzenesulfonic acid amide] were, in that order, 88% and 62%.
On to `COc1cc(C)c(S(=O)(=O)N(C)C(C)c2nc3cccc(C(=O)N4CCC5(CCN(C(=O)CC(C)(C)C)CC5)CC4)c3[nH]2)c(C)c1` (centres unmarked) [I_CC-51, N-[1-[7-[9-(3,3-Dimethyl-butanoyl)-3,9-diazaspiro[5.5]undecane-3-carbonyl]-1H-benzoimidazol-2-yl]-ethyl]-4-methoxy-N,2,6-trimethyl-benzenesulfonic acid amide], for which the inhibition at 10 µM turned out to be 88% in assay [1] and 78% in assay [2].
For the compound `COc1cc(C)c(S(=O)(=O)N(C)C(C)c2nc3cccc(C(=O)N4CCC5(CCN(C(=O)c6ccc(F)cc6Cl)CC5)CC4)c3[nH]2)c(C)c1` (centres unmarked) [I_CC-52, N-[1-[7-[9-(2-Chloro-4-fluoro-benzoyl)-3,9-diazaspiro[5.5]undecane-3-carbonyl]-1H-benzoimidazol-2-yl]-ethyl]-4-methoxy-N,2,6-trimethyl-benzenesulfonic acid amide], the inhibition at 10 µM in assay [1] was 93%; in assay [2], 77%.
As for `COc1cc(C)c(S(=O)(=O)N(C)C(C)c2nc3cccc(C(=O)N4CCC5(CCN(C(=O)c6ccc(F)cc6F)CC5)CC4)c3[nH]2)c(C)c1` (centres unmarked) [I_CC-53, N-[1-[7-[9-(2,4-Difluoro-benzoyl)-3,9-diazaspiro[5.5]undecane-3-carbonyl]-1H-benzoimidazol-2-yl]-ethyl]-4-methoxy-N,2,6-trimethyl-benzenesulfonic acid amide], the inhibition at 10 µM in assay [1] came out at 88%; in assay [2] it was 85%.
For `COc1cc(C)c(S(=O)(=O)N(C)C(C)c2nc3cccc(C(=O)N4CCC5(CC4)CCN(C(=O)c4cc(C(C)(C)C)nn4C)CC5)c3[nH]2)c(C)c1` (centres unmarked) [I_CC-54, N-[1-[7-[9-(5-tert-Butyl-2-methyl-2H-pyrazole-3-carbonyl)-3,9-diazaspiro[5.5]undecane-3-carbonyl]-1H-benzoimidazol-2-yl]-ethyl]-4-methoxy-N,2,6-trimethyl-benzenesulfonic acid amide], the inhibition at 10 µM was determined as 92% in assay [1] and 63% in assay [2].
Take `COc1cc(C)c(S(=O)(=O)N(C)C(C)c2nc3cccc(C(=O)N4CCC5(CC4)CCN(C(=O)c4cc(C)nn4C(C)(C)C)CC5)c3[nH]2)c(C)c1` (centres unmarked) [I_CC-55, N-[1-[7-[9-(2-tert-Butyl-5-methyl-2H-pyrazole-3-carbonyl)-3,9-diazaspiro[5.5]undecane-3-carbonyl]-1H-benzoimidazol-2-yl]-ethyl]-4-methoxy-N,2,6-trimethyl-benzenesulfonic acid amide]: the inhibition at 10 µM in assay [1] came to 89%; in assay [2], 71%.
Turning to `COc1cc(C)c(S(=O)(=O)N(C)C(C)c2nc3cccc(C(=O)N4CCC5(CC4)CCN(S(=O)(=O)c4ccc(Cl)s4)CC5)c3[nH]2)c(C)c1` (centres unmarked) [I_CC-56, N-[1-[7-[9-[(5-Chloro-thiophen-2-yl)sulfonyl]-3,9-diazaspiro[5.5]undecane-3-carbonyl]-1H-benzoimidazol-2-yl]-ethyl]-4-methoxy-N,2,6-trimethyl-benzenesulfonic acid amide], the inhibition at 10 µM in assay [1] was 101%; in assay [2], 15%.
For `COc1cc(C)c(S(=O)(=O)N(C)C(C)c2nc3cccc(C(=O)N4CCC5(CC4)CCN(S(=O)(=O)c4ccc(F)cc4F)CC5)c3[nH]2)c(C)c1` (centres unmarked) [I_CC-57, N-[1-[7-[9-[(2,4-Difluoro-phenyl)sulfonyl]-3,9-diazaspiro[5.5]undecane-3-carbonyl]-1H-benzoimidazol-2-yl]-ethyl]-4-methoxy-N,2,6-trimethyl-benzenesulfonic acid amide] the same measures were 103% and 22%.
The like results for `COc1cc(C)c(S(=O)(=O)N(C)C(C)c2nc3cccc(C(=O)N4CCC5(CC4)CCN(S(=O)(=O)c4ccc(F)c(C#N)c4)CC5)c3[nH]2)c(C)c1` (centres unmarked) [I_CC-58, N-[1-[7-[9-[(3-Cyano-4-fluoro-phenyl)sulfonyl]-3,9-diazaspiro[5.5]undecane-3-carbonyl]-1H-benzoimidazol-2-yl]-ethyl]-4-methoxy-N,2,6-trimethyl-benzenesulfonic acid amide] were, in that order, 101% and 18%.
As to `COc1cc(C)c(S(=O)(=O)N(C)C(C)c2nc3cccc(C(=O)N4CCC5(CC4)CCN(S(=O)(=O)c4ccccc4C#N)CC5)c3[nH]2)c(C)c1` (centres unmarked) [I_CC-59, N-[1-[7-[9-[(2-Cyano-phenyl)sulfonyl]-3,9-diazaspiro[5.5]undecane-3-carbonyl]-1H-benzoimidazol-2-yl]-ethyl]-4-methoxy-N,2,6-trimethyl-benzenesulfonic acid amide], the inhibition at 10 µM was 103% in assay [1] and 20% in assay [2].
